Source: ChEMBL document CHEMBL1909294, “Translating clinical findings into knowledge in drug safety evaluation--drug induced liver injury prediction system (DILIps)” (PLoS Comput Biol, 2011)

What was measured:
[1] = test system: Hepatotoxicity;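 on HepSE bilirubinemia: bilirubinemia hepatic side effect score drawn from the DILIps training data, a prediction system for drug-induced liver injury; call rule not given here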;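 on HepSE cholecystitis: Cholecystitis-related hepatic side effect score drawn from the DILIps (drug-induced liver injury prediction) training data set; call rule not given here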;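 on HepSE cirrhosis: cirrhosis hepatic side effect score taken from the DILIps (drug-induced liver injury prediction) training set; call rule not given here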;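 on HepSE elevated liver function tests: hepatic side effect score for raised liver function tests, as recorded in the DILIps training set used for predicting drug-induced liver injury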; on HepSE hepatic failure: call rule not given here;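 on HepSE hepatomegaly: hepatic side effect score for hepatomegaly, taken from the training set of the DILIps drug-induced liver injury prediction system; call rule not given here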;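 on HepSE jaundice: Jaundice-related hepatic side-effect score drawn from the training data of the DILIps (drug-induced liver injury prediction system); call rule not given here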
[2] = test system: Hepatotoxicity; remark: listed apart in the source;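 on HepSE bilirubinemia: bilirubinemia hepatic side effect score drawn from the DILIps training data, a prediction system for drug-induced liver injury; call rule not given here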;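 on HepSE cholecystitis: Cholecystitis-related hepatic side effect score drawn from the DILIps (drug-induced liver injury prediction) training data set; call rule not given here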;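 on HepSE cirrhosis: cirrhosis hepatic side effect score taken from the DILIps (drug-induced liver injury prediction) training set; call rule not given here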;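 on HepSE elevated liver function tests: hepatic side effect score for raised liver function tests, as recorded in the DILIps training set used for predicting drug-induced liver injury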; on HepSE hepatic failure: call rule not given here;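 on HepSE hepatomegaly: hepatic side effect score for hepatomegaly, taken from the training set of the DILIps drug-induced liver injury prediction system; call rule not given here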;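 on HepSE jaundice: Jaundice-related hepatic side-effect score drawn from the training data of the DILIps (drug-induced liver injury prediction system); call rule not given here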
[3] = test system: Hepatotoxicity; remark: listed apart in the source;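 on HepSE bilirubinemia: bilirubinemia hepatic side effect score drawn from the DILIps training data, a prediction system for drug-induced liver injury; call rule not given here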;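 on HepSE cholecystitis: Cholecystitis-related hepatic side effect score drawn from the DILIps (drug-induced liver injury prediction) training data set; call rule not given here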;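 on HepSE cirrhosis: cirrhosis hepatic side effect score taken from the DILIps (drug-induced liver injury prediction) training set; call rule not given here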;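 on HepSE elevated liver function tests: hepatic side effect score for raised liver function tests, as recorded in the DILIps training set used for predicting drug-induced liver injury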; on HepSE hepatic failure: call rule not given here;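 on HepSE jaundice: Jaundice-related hepatic side-effect score drawn from the training data of the DILIps (drug-induced liver injury prediction system); call rule not given here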
[4] = test system: Hepatotoxicity; remark: listed apart in the source;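 on HepSE bilirubinemia: bilirubinemia hepatic side effect score drawn from the DILIps training data, a prediction system for drug-induced liver injury; call rule not given here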;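 on HepSE cholecystitis: Cholecystitis-related hepatic side effect score drawn from the DILIps (drug-induced liver injury prediction) training data set; call rule not given here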;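 on HepSE cirrhosis: cirrhosis hepatic side effect score taken from the DILIps (drug-induced liver injury prediction) training set; call rule not given here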;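 on HepSE elevated liver function tests: hepatic side effect score for raised liver function tests, as recorded in the DILIps training set used for predicting drug-induced liver injury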; on HepSE hepatic failure: call rule not given here;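 on HepSE jaundice: Jaundice-related hepatic side-effect score drawn from the training data of the DILIps (drug-induced liver injury prediction system); call rule not given here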
[5] = test system: Hepatotoxicity; remark: listed apart in the source; on HepSE hepatic failure: call rule not given here
[6] = test system: Hepatotoxicity; remark: listed apart in the source; on HepSE hepatic failure: call rule not given here
[7] = test system: Hepatotoxicity; remark: listed apart in the source
[8] = test system: Hepatotoxicity; remark: listed apart in the source
[9] = test system: Hepatotoxicity; remark: listed apart in the source
[10] = test system: Hepatotoxicity; remark: listed apart in the source
[11] = test system: Hepatotoxicity; remark: listed apart in the source
[12] = test system: Hepatotoxicity; remark: listed apart in the source
[13] = test system: Hepatotoxicity; remark: listed apart in the source
[14] = test system: Hepatotoxicity; remark: listed apart in the source

CC(C)N(CCC(C(N)=O)(c1ccccc1)c1ccccn1)C(C)C (stereo not drawn) [DISOPYRAMIDE]
HepSE_hepatic failure [1]: 0
HepSE_cholecystitis [2]: 0
HepSE_elevated liver function tests [3]: 0
HepSE_bilirubinemia [4]: 0
HepSE_jaundice [5]: 1
HepSE_cirrhosis [6]: 0
HepSE_hepatomegaly [7]: 0
HepSE_hepatitis [8]: 0
HepSE_liver function tests abnormal [9]: 0
HepSE_Combined Scores [10]: 1
HepSE_cholelithiasis [11]: 0
HepSE_hepatic necrosis [12]: 0
HepSE_liver disease [13]: 0
HepSE_liver fatty [14]: 0

CC(CCc1ccc(O)cc1)NCCc1ccc(O)c(O)c1 (stereo not drawn) [DOBUTAMINE]
HepSE_hepatic failure [1]: 0
HepSE_cholecystitis [2]: 0
HepSE_elevated liver function tests [3]: 0
HepSE_bilirubinemia [4]: 0
HepSE_jaundice [5]: 0
HepSE_cirrhosis [6]: 0
HepSE_hepatomegaly [7]: 0
HepSE_hepatitis [8]: 0
HepSE_liver function tests abnormal [9]: 0
HepSE_Combined Scores [10]: 0
HepSE_cholelithiasis [11]: 0
HepSE_hepatic necrosis [12]: 0
HepSE_liver disease [13]: 0
HepSE_liver fatty [14]: 0

CC(=O)O[C@@]12CO[C@@H]1C[C@H](O)[C@@]1(C)C(=O)[C@H](O)C3=C(C)[C@@H](OC(=O)[C@H](O)[C@@H](NC(=O)OC(C)(C)C)c4ccccc4)C[C@@](O)([C@@H](OC(=O)c4ccccc4)[C@H]21)C3(C)C.O.O.O [DOCETAXEL]
HepSE_hepatic failure [1]: 1
HepSE_cholecystitis [2]: 0
HepSE_elevated liver function tests [3]: 1
HepSE_bilirubinemia [4]: 1
HepSE_jaundice [5]: 1
HepSE_cirrhosis [6]: 0
HepSE_hepatomegaly [7]: 0
HepSE_hepatitis [8]: 1
HepSE_liver function tests abnormal [9]: 1
HepSE_Combined Scores [10]: 6
HepSE_cholelithiasis [11]: 0
HepSE_hepatic necrosis [12]: 0
HepSE_liver disease [13]: 0
HepSE_liver fatty [14]: 0

CCCCCCCCCCCCCCCCCCCCCCO [DOCOSANOL]
HepSE_hepatic failure [1]: 0
HepSE_cholecystitis [2]: 0
HepSE_elevated liver function tests [3]: 0
HepSE_bilirubinemia [4]: 0
HepSE_jaundice [5]: 0
HepSE_cirrhosis [6]: 0
HepSE_hepatomegaly [7]: 0
HepSE_hepatitis [8]: 0
HepSE_liver function tests abnormal [9]: 0
HepSE_Combined Scores [10]: 0
HepSE_cholelithiasis [11]: 0
HepSE_hepatic necrosis [12]: 0
HepSE_liver disease [13]: 0
HepSE_liver fatty [14]: 0

CN(CCOc1ccc(NS(C)(=O)=O)cc1)CCc1ccc(NS(C)(=O)=O)cc1 [DOFETILIDE]
HepSE_hepatic failure [1]: 0
HepSE_cholecystitis [2]: 0
HepSE_elevated liver function tests [3]: 0
HepSE_bilirubinemia [4]: 0
HepSE_jaundice [5]: 0
HepSE_cirrhosis [6]: 0
HepSE_hepatomegaly [7]: 0
HepSE_hepatitis [8]: 0
HepSE_liver function tests abnormal [9]: 0
HepSE_Combined Scores [10]: 0
HepSE_cholelithiasis [11]: 0
HepSE_hepatic necrosis [12]: 0
HepSE_liver disease [13]: 0
HepSE_liver fatty [14]: 0

O=C(O[C@@H]1C[C@@H]2C[C@H]3C[C@H](C1)N2CC3=O)c1c[nH]c2ccccc12 [DOLASETRON]
HepSE_hepatic failure [1]: 0
HepSE_cholecystitis [2]: 0
HepSE_elevated liver function tests [3]: 0
HepSE_bilirubinemia [4]: 1
HepSE_jaundice [5]: 0
HepSE_cirrhosis [6]: 0
HepSE_hepatomegaly [7]: 0
HepSE_hepatitis [8]: 0
HepSE_liver function tests abnormal [9]: 0
HepSE_Combined Scores [10]: 2
HepSE_cholelithiasis [11]: 0
HepSE_hepatic necrosis [12]: 0
HepSE_liver disease [13]: 1
HepSE_liver fatty [14]: 0

O=c1[nH]c2ccccc2n1CCCN1CCC(n2c(=O)[nH]c3cc(Cl)ccc32)CC1 [DOMPERIDONE]
HepSE_hepatic failure [1]: 0
HepSE_cholecystitis [2]: 0
HepSE_elevated liver function tests [3]: 0
HepSE_bilirubinemia [4]: 0
HepSE_jaundice [5]: 0
HepSE_cirrhosis [6]: 0
HepSE_hepatomegaly [7]: 0
HepSE_hepatitis [8]: 0
HepSE_liver function tests abnormal [9]: 0
HepSE_Combined Scores [10]: 0
HepSE_cholelithiasis [11]: 0
HepSE_hepatic necrosis [12]: 0
HepSE_liver disease [13]: 0
HepSE_liver fatty [14]: 0

COc1cc2c(cc1OC)C(=O)C(CC1CCN(Cc3ccccc3)CC1)C2 (stereo not drawn) [DONEPEZIL]
HepSE_hepatic failure [1]: 0
HepSE_cholecystitis [2]: 1
HepSE_elevated liver function tests [3]: 0
HepSE_bilirubinemia [4]: 1
HepSE_jaundice [5]: 1
HepSE_cirrhosis [6]: 0
HepSE_hepatomegaly [7]: 0
HepSE_hepatitis [8]: 1
HepSE_liver function tests abnormal [9]: 1
HepSE_Combined Scores [10]: 6
HepSE_cholelithiasis [11]: 1
HepSE_hepatic necrosis [12]: 0
HepSE_liver disease [13]: 0
HepSE_liver fatty [14]: 0

NCCc1ccc(O)c(O)c1 [DOPAMINE]
HepSE_hepatic failure ([1]; Liver): 0
HepSE_cholecystitis ([2]; Liver): 0
HepSE_elevated liver function tests ([3]; Liver): 0
HepSE_bilirubinemia ([4]; Liver): 0
HepSE_jaundice ([5]; Liver): 0
HepSE_cirrhosis ([6]; Liver): 0
HepSE_hepatomegaly ([7]; Liver): 0
HepSE_hepatitis ([8]; Liver): 0
HepSE_liver function tests abnormal ([9]; Liver): 0
HepSE_Combined Scores ([10]; Liver): 0
HepSE_cholelithiasis ([11]; Liver): 0
HepSE_hepatic necrosis ([12]; Liver): 0
HepSE_liver disease ([13]; Liver): 0
HepSE_liver fatty ([14]; Liver): 0

CCN[C@H]1C[C@H](C)S(=O)(=O)c2sc(S(N)(=O)=O)cc21 [DORZOLAMIDE]
HepSE_hepatic failure [1]: 0
HepSE_cholecystitis [2]: 0
HepSE_elevated liver function tests [3]: 0
HepSE_bilirubinemia [4]: 0
HepSE_jaundice [5]: 0
HepSE_cirrhosis [6]: 0
HepSE_hepatomegaly [7]: 1
HepSE_hepatitis [8]: 0
HepSE_liver function tests abnormal [9]: 0
HepSE_Combined Scores [10]: 1
HepSE_cholelithiasis [11]: 0
HepSE_hepatic necrosis [12]: 0
HepSE_liver disease [13]: 0
HepSE_liver fatty [14]: 0

COc1cc(CC2c3c(cc(OC)c(OC)c3OC)CC[N+]2(C)CCCOC(=O)CCC(=O)OCCC[N+]2(C)CCc3cc(OC)c(OC)c(OC)c3C2Cc2cc(OC)c(OC)c(OC)c2)cc(OC)c1OC (stereo not drawn) [DOXACURIUM]
HepSE_hepatic failure [1]: 0
HepSE_cholecystitis [2]: 0
HepSE_elevated liver function tests [3]: 0
HepSE_bilirubinemia [4]: 0
HepSE_jaundice [5]: 0
HepSE_cirrhosis [6]: 0
HepSE_hepatomegaly [7]: 0
HepSE_hepatitis [8]: 0
HepSE_liver function tests abnormal [9]: 0
HepSE_Combined Scores [10]: 0
HepSE_cholelithiasis [11]: 0
HepSE_hepatic necrosis [12]: 0
HepSE_liver disease [13]: 0
HepSE_liver fatty [14]: 0

CCN1CC(CCN2CCOCC2)C(c2ccccc2)(c2ccccc2)C1=O (stereo not drawn) [DOXAPRAM]
HepSE_hepatic failure [1]: 0
HepSE_cholecystitis [2]: 0
HepSE_elevated liver function tests [3]: 0
HepSE_bilirubinemia [4]: 0
HepSE_jaundice [5]: 0
HepSE_cirrhosis [6]: 0
HepSE_hepatomegaly [7]: 0
HepSE_hepatitis [8]: 0
HepSE_liver function tests abnormal [9]: 0
HepSE_Combined Scores [10]: 0
HepSE_cholelithiasis [11]: 0
HepSE_hepatic necrosis [12]: 0
HepSE_liver disease [13]: 0
HepSE_liver fatty [14]: 0

COc1cc2nc(N3CCN(C(=O)C4COc5ccccc5O4)CC3)nc(N)c2cc1OC (stereo not drawn) [DOXAZOSIN]
HepSE_hepatic failure [1]: 0
HepSE_cholecystitis [2]: 0
HepSE_elevated liver function tests [3]: 0
HepSE_bilirubinemia [4]: 0
HepSE_jaundice [5]: 1
HepSE_cirrhosis [6]: 0
HepSE_hepatomegaly [7]: 0
HepSE_hepatitis [8]: 1
HepSE_liver function tests abnormal [9]: 1
HepSE_Combined Scores [10]: 4
HepSE_cholelithiasis [11]: 1
HepSE_hepatic necrosis [12]: 0
HepSE_liver disease [13]: 0
HepSE_liver fatty [14]: 0

CN(C)CCC=C1c2ccccc2COc2ccccc21 [DOXEPIN]
HepSE_hepatic failure [1]: 0
HepSE_cholecystitis [2]: 0
HepSE_elevated liver function tests [3]: 0
HepSE_bilirubinemia [4]: 0
HepSE_jaundice [5]: 1
HepSE_cirrhosis [6]: 0
HepSE_hepatomegaly [7]: 0
HepSE_hepatitis [8]: 0
HepSE_liver function tests abnormal [9]: 0
HepSE_Combined Scores [10]: 1
HepSE_cholelithiasis [11]: 0
HepSE_hepatic necrosis [12]: 0
HepSE_liver disease [13]: 0
HepSE_liver fatty [14]: 0

COc1cccc2c1C(=O)c1c(O)c3c(c(O)c1C2=O)C[C@@](O)(C(=O)CO)C[C@@H]3O[C@H]1C[C@H](N)[C@H](O)[C@H](C)O1 [DOXORUBICIN]
HepSE_hepatic failure [1]: 1
HepSE_cholecystitis [2]: 0
HepSE_elevated liver function tests [3]: 0
HepSE_bilirubinemia [4]: 1
HepSE_jaundice [5]: 1
HepSE_cirrhosis [6]: 0
HepSE_hepatomegaly [7]: 0
HepSE_hepatitis [8]: 1
HepSE_liver function tests abnormal [9]: 1
HepSE_Combined Scores [10]: 5
HepSE_cholelithiasis [11]: 0
HepSE_hepatic necrosis [12]: 0
HepSE_liver disease [13]: 0
HepSE_liver fatty [14]: 0

Cc1cn([C@H]2C[C@H](O)[C@@H](CO)O2)c(=O)[nH]c1=O [DOXRIBTIMINE]
HepSE_hepatic failure [1]: 0
HepSE_cholecystitis [2]: 0
HepSE_elevated liver function tests [3]: 0
HepSE_bilirubinemia [4]: 0
HepSE_jaundice [5]: 0
HepSE_cirrhosis [6]: 0
HepSE_hepatomegaly [7]: 0
HepSE_hepatitis [8]: 1
HepSE_liver function tests abnormal [9]: 0
HepSE_Combined Scores [10]: 1
HepSE_cholelithiasis [11]: 0
HepSE_hepatic necrosis [12]: 0
HepSE_liver disease [13]: 0
HepSE_liver fatty [14]: 0

C[C@H]1c2cccc(O)c2C(=O)C2=C(O)[C@]3(O)C(=O)C(C(N)=O)=C(O)[C@@H](N(C)C)[C@@H]3[C@@H](O)[C@@H]21.O [DOXYCYCLINE]
HepSE_hepatic failure [1]: 0
HepSE_cholecystitis [2]: 0
HepSE_elevated liver function tests [3]: 0
HepSE_bilirubinemia [4]: 0
HepSE_jaundice [5]: 0
HepSE_cirrhosis [6]: 0
HepSE_hepatomegaly [7]: 0
HepSE_hepatitis [8]: 0
HepSE_liver function tests abnormal [9]: 0
HepSE_Combined Scores [10]: 0
HepSE_cholelithiasis [11]: 0
HepSE_hepatic necrosis [12]: 0
HepSE_liver disease [13]: 0
HepSE_liver fatty [14]: 0
